Where a name gives a salt, the structure may show the parent alone.
What was measured:
[1] = tested on: Tobacco Budworm 1st Instar; assay: Tobacco budworm initial test, treated eggs / newly hatched (1st instar) larvae on treated cotton leaves; format: in vivo, Heliothis virescens (Fabricus); details: 300 ppm
Method: (§1) Test formulations and procedures used for evaluation are as follows:
(§2) A. 100 mg of the test material is weighed, placed in a funnel over a 113 g narrow-mouth bottle, rinsed into the bottle with a 35 mL scoop of acetone, followed by a 35 mL scoop of water and another 35 mL scoop of acetone to yield 1000 ppm in 65% acetone. If the material is not soluble, it is broken up with a glass rod and used as a suspension.
(§3) B. This stock solution ("A") is used to make 300 ppm solutions or suspensions by pipetting 30 mL of "A" into a bottle containing 70 mL of 50% acetone to yield 300 ppm. Further dilutions in 50% acetone are made as required.
(§4) C. Tests requiring 10 ppm acetone solutions: 1 mL of "A" is pipetted into 99 mL of acetone to yield 10 ppm. Additional dilutions are made using 50% acetone as required.
Tobacco Budworm--Heliothis virescens (Fabricus)
A cotton plant with two true leaves expanded is dipped for three seconds with agitation in 300 ppm solution. A 1.27 to 1.91 cm square of cheesecloth with about 50 to 100 budworm eggs 0-24 hours old is also dipped in the test solution and placed on a leaf of the cotton plant, all being placed in the hood to dry. The leaf with the treated budworm eggs is removed from the plant and placed in a 226 g Dixie cup with a wet 5 cm piece of dental wick and covered with a lid. The other leaf is placed in a similar cup with a wick and a piece of cheesecloth infested with 50-100 newly hatched larvae is added before covering the cup with a lid. After three days at 80° F., 50% relative humidity, observations of egg hatch are made, as well as kill of newly hatched larvae, any inhibition of feeding, or interference of any sort with normal development.

[2] = tested on: Southern Armyworm; assay: Southern armyworm test, third-instar larvae on treated Sieva lima bean leaves; format: in vivo, Spodoptera eridania (Cramer); details: third-instar larvae
Method: as §1, §2, §3, §4
Southern Armyworm--Spodoptera eridania (Cramer)
A Sieva lima bean plant with just the primary leaves expanded to 1.91 cm is dipped for three seconds with agitation in the "A" solution of 1000 ppm and set in the hood to dry. Following this, one leaf is placed in a 9 cm petri dish which has a moist filter paper in the bottom and 10 third-instar armyworm larvae about 1 cm long. This dish is covered and held at 80° F., and 50% r.h. After two days, mortality counts and estimates of the amount of feeding are made. Compounds showing partial kill and/or inhibition of feeding are held for an extra day for further observations.
All compounds showing activity as defined above are retested, using the second leaf on the bean plant, after an interval of seven days from original treatment, as an assay of residual activity.

[3] = tested on: Tobacco Budworm 3rd Instar; assay: Tobacco budworm secondary test, third-instar larvae on treated cotton cotyledons; format: in vivo, Heliothis virescens (Fabricus)
Method: Three cotton plants with just expanded cotyledons are dipped in 1000 ppm solution and placed in the hood to dry. When dry, each cotyledon is cut in half, and 10 are each placed in a 28 g plastic medicine cup containing a 1.25 cm dental wick saturated with water, and one third-instar budworm larva is added. The cup is capped and held for three days at 80° F., 50% relative humidity, after which mortality counts are made.

Compound	Mortality Rating Tobacco Budworm 1st Instar [1]	Mortality Rating Southern Armyworm ([2]; 100 ppm)	Mortality Rating Southern Armyworm ([2]; 1000 ppm)	Mortality Rating Tobacco Budworm 3rd Instar ([3]; 100 ppm)	Mortality Rating Tobacco Budworm 3rd Instar ([3]; 1000 ppm)	Mortality Rating Southern Armyworm ([2]; 10 ppm)	reduced feeding (R) Tobacco Budworm 3rd Instar ([3]; 100 ppm)	reduced feeding (R) Tobacco Budworm 3rd Instar ([3]; 1000 ppm)	Mortality Rating Tobacco Budworm 3rd Instar ([3]; 10 ppm)	reduced feeding (R) Tobacco Budworm 3rd Instar ([3]; 10 ppm)
CN(C)C(=O)N(N=Cc1ccc(Cl)cc1)C(=N)NN=Cc1ccc(Cl)cc1 [Cl / Cl / CH3 / CH3]	0 (No effect)	0 (No effect)	9 (100%)	0 (No effect)	0 (No effect)					
N=C(NN=Cc1ccc(C(F)(F)F)cc1)N(N=Cc1ccc(C(F)(F)F)cc1)C(=O)OCc1ccccc1 [CF3 / CF3 / drawing 59]	0 (No effect)	0 (No effect)	9 (100%)		0 (No effect)					
CC(C)OC(=O)N(N=Cc1ccc(C(F)(F)F)cc1)C(=N)NN=Cc1ccc(C(F)(F)F)cc1 [CF3 / CF3 / -i-C3 H7]	0 (No effect)	9 (100%)	9 (100%)	0 (No effect)	3 (36-45%)	9 (100%)	R	R		
N=C(NN=Cc1ccc(OC(F)F)cc1)NN=Cc1ccc(OC(F)F)cc1 [HCF2 O / S]	0 (No effect)	8 (86-99%)	9 (100%)		0 (No effect)	0 (No effect)				
N=C(NN=Cc1ccc(C(F)(F)F)cc1)N(N=Cc1ccc(C(F)(F)F)cc1)C(=O)OCC(Cl)(Cl)Cl [CF3 / CF3 / Cl3 CCH2]		9 (100%)	9 (100%)	0 (No effect)	8 (86-99%)	8 (86-99%)	R		0 (No effect)	
C=CCOC(=O)N(N=Cc1ccc(C(F)(F)F)cc1)C(=N)NN=Cc1ccc(C(F)(F)F)cc1 [CF3 / CF3 / CH2CHCH2]		9 (100%)	9 (100%)	0 (No effect)	0 (No effect)	0 (No effect)		R		
CCCCOC(=O)N(N=Cc1ccc(C(F)(F)F)cc1)C(=N)NN=Cc1ccc(C(F)(F)F)cc1 [CF3 / CF3 / -n-C4 H9]		0 (No effect)	9 (100%)		0 (No effect)					
N=C(NN=Cc1ccc(OC(F)(F)F)cc1)NN=Cc1ccc(OC(F)(F)F)cc1 [CF3 O / HCl]	9 (100%)	9 (100%)	9 (100%)			0 (No effect)				
CC(C)OC(=O)N(N=Cc1ccc(OC(F)(F)C(F)Cl)cc1)C(=N)NN=Cc1ccc(OC(F)(F)C(F)Cl)cc1 (stereo not shown) [drawing 50 / drawing 51 / -i-C3 H7]		9 (100%)	9 (100%)		0 (No effect)	0 (No effect)		R		
N=C(NN=Cc1ccc(OC(F)(F)C(F)Cl)cc1)NN=Cc1ccc(OC(F)(F)C(F)Cl)cc1 (stereo not shown) [drawing 44 / S]		9 (100%)	9 (100%)	0 (No effect)	9 (100%)	6 (66-75%)	R	R	0 (No effect)	R
CC(C)OC(=O)N(N=Cc1ccc(OC(F)(F)F)cc1)C(=N)NN=Cc1ccc(OC(F)(F)F)cc1 [CF3 O / CF3 O / -i-C3 H7]		9 (100%)	9 (100%)	5 (56-65%)		7 (76-85%)	R			

Reference: patent US4575560A, “Insecticidal diaminoguanidine hydrazone compounds” (American Cyanamid Company, priority 1985, dated 1986)
